Data taken from patent US4904659A, “Substituted quinoline derivatives and pharmaceutical compositions thereof” (Development Finance Corporation of New Zeland, priority 1985, dated 1990).
Like-named read-outs stand apart in the source and are kept apart here.

What was measured:
P388 leukemia = experiment: In vivo antitumour activity against P388 leukemia (cells inoculated intraperitoneally); parameters: species or system mice (F1 hybrids of DBA/2J male x C57BL/6J female); conditions: for P388 in vivo ILS (percentage increase in lifespan) / P388 in vivo Active: P388 leukemia; for P388 in vivo ILS (percentage increase in lifespan): at optimal dose (OD), intraperitoneal, days 1, 5 and 9, control survival 11 days; for P388 in vivo Active: at the stated dose, ILS greater than 20% significant
Description: (§1) OD--The optimal drug dose (in milligrams per kilogram), administered intraperitoneally as a solution in 0.1 ml of 30% v/v ethyl alcohol in water on days 1, 5 and 9 after tumour inoculation. The drug is administered as a soluble acid addition salt.
(§2) ILSmax--The percentage increase in lifespan of treated animals over that of control animals injected with tumour alone. The average survival of control mice was 11 days (for P388 leukemia) and 17 days (for Lewis lung carcinoma) ILS values greater than 20% (P388 leukemia) and 40% (Lewis lung carcinoma) are considered statistically significant. Numbers in parentheses after ILS values indicate the number of long-term survivors (out of a group of 6).
(§3) Y--Implies a significant value of drug activity at the stated dose.
(§4) N--Implies no statistically significant activity.
(§5) Both of these tumour lines were obtained as frozen cell stocks from Mason Research Inc., USA and are passaged intraperitoneally in DBA/25 mice of either sex (P388) or subcutaneously in C57BL/65 mice of either sex (LL) according to the standard methods (Cancer Chemother. Reports., 3, Part 3, p9, 1972).
(§6) Groups of six mice (F1 hybrids of DBA/2J male x C57BL/6J female) were injected intraperitoneally (P388) or intravenously (tail vein, LL), with 10^6 tumour cells on day 0. When given in this manner, P388 cells grow diffusely in the peritoneal cavity, whereas the Lewis lung cells from distinct solid tumour nodules in the lungs. Antitumour activity is determined by published methods (European J. Cancer, 19, pp.1607-1613, 1983).

[1] = Rm: lipophilic-hydrophilic balance from reversed phase partition chromatography; assay type: physicochemical; conditions: linearly related to 1-octanol/water partition coefficients
Excerpt: Rm-a measure of the compound's liphophilic-hydrophilic balance from reversed phase partition chromatography. Rm is linearly related to partition coefficients obtained in the 1-octanol/water system.

L1210 leukemia cells = experiment: Growth inhibition of cultured L1210 leukemia cells (70 h, counted cell numbers); assay type: cell-based; conditions: Mus musculus, read-out: In vitro L1210 (IC50)
Lewis lung carcinoma = experiment: In vivo antitumour activity against Lewis lung carcinoma (cells inoculated intravenously); parameters: species or system mice (F1 hybrids of DBA/2J male x C57BL/6J female); conditions: for LL in vivo ILS (percentage increase in lifespan) / LL in vivo Active: Lewis lung carcinoma; for LL in vivo ILS (percentage increase in lifespan): at optimal dose (OD), intraperitoneal, days 1, 5 and 9, control survival 17 days; for LL in vivo Active: at the stated dose, ILS greater than 40% significant; for LL in vivo number of long-term survivors: number in parentheses after ILS, out of a group of 6, Lewis lung carcinoma
Description: as §1, §2, §3, §4
LL--Is the Lewis lung carcinoma.
as §5, §6

bacterial cell lines = experiment: In vitro antibacterial activity; assay type: cell-based; conditions: a number of bacterial cell lines

Row | Structure (SMILES) | P388 in vivo ILS (percentage increase in lifespan) (P388 leukemia) | P388 in vivo Active (P388 leukemia) | P388 in vivo number of long-term survivors (P388 leukemia; number in parentheses after ILS, out of a group of 6, P388 leukemia) | chromatographic logP [1] | IC50 (L1210 leukemia cells; L1210 leukemia cells, 70 h, cell numbers reduced to 50% of controls) | LL in vivo ILS (percentage increase in lifespan) (Lewis lung carcinoma) | LL in vivo Active (Lewis lung carcinoma) | LL in vivo number of long-term survivors (Lewis lung carcinoma) | antibacterial activity (bacterial cell lines) | IC50 (L1210 leukemia cells; L1210, 70 h)
1 | CN(C)CCNC(=O)c1cccc2ccc(-c3ccncc3)nc12 [Compound 12] | 145% | Y (Implies a significant value of drug activity at the stated dose) | 2 | -0.87 | 0.17 µM | 132% | Y (Implies a significant value of drug activity at the stated dose) | 3 | show in vitro activity against a number of bacterial cell lines | 
2 | CN(C)CCNC(=O)c1cccc2ccc(-c3ccccc3)nc12 [Compound 1] | 91% | Y (Implies a significant value of drug activity at the stated dose) |  | -0.01 |  | 70% | Y (Implies a significant value of drug activity at the stated dose) | 4 | show in vitro activity against a number of bacterial cell lines | 1.3 µM
